Laboratory results from US9005903B2, “Immunomodulating compositions and methods of use thereof” (ImmuneXcite, Inc., priority 2008, dated 2015).

Test system: IgG antibodies
Test: Serum IgG antibodies binding glucan
Conditions: pooled serum from 10 human donors
Method: Serum from 10 unimmunized normal healthy donors was pooled
Pooled serum from 10 human donors, had high levels of IgG antibodies binding β-1,6-glucan, in contrast to low levels of IgG binding β-1,3-glucan. To test how prevalent is the anti-β-b 1,6-glucan antibodies in different donors, we collected sera from 12 individuals. The sera were used to opsonize β-1,6-glucan- or β-1,3-glucan-coated beads, and the beads were incubated with human neutrophils. Eleven of the twelve sera had the high response that the pool did, mediating efficient engulfment and ROS production (FIG. 2A, a representative serum of the high responders). One serum mediated a less efficient engulfment and ROS production (FIG. 2B, low responder).

Substance | levels of IgG antibodies binding the glucan
β-1,3-glucan | low levels
β-1,6-glucan | high levels
